Assay results taken from paper PMC11986105, “Antibacterial macrocyclic peptides reveal a distinct mode of BamA inhibition” (Nature Communications, 2025).
In brackets after ≈: the same amount, converted by molar mass. Read-outs that look alike come from different tables or passages of the source. Bridge positions count the residues as written; N and C are the ends. Square brackets hold non-standard residues; d marks the D form. Peptide text beside a SMILES is read from it. Gly(NCH2CH2Ph) = O=C(O)CNCCc1ccccc1; NMeF = CN[C@@H](Cc1ccccc1)C(=O)O; Tic = O=C(O)[C@@H]1Cc2ccccc2CN1

Legend:
E. coli BamA β-barrel = target: T1, E. coli BamA β-barrel (Escherichia coli, UniProt P0A940); assay: SPR binding to E. coli BamA β-barrel; conditions: for KD: SPR, N-terminally biotinylated E. coli BamA β-barrel, single cycle kinetics, average of 2, 3, or 4 replicates ± SD; for kon: pH 7.5, read-out: ka
T1 construct: residues 421–810 from strain MG1655; made in house
From the text: For SPR, E. coli K-12 BamA (EcBamA; residues 421–810 from strain MG1655), A. baumannii BamA (AbBamA; residues 425–841 from strain ATCC19606) and P. aeruginosa BamA (PaBamA; residues 420–797 from strain PAO1) were synthesized and cloned into pET23b (Millipore Sigma) with a N-terminal Avitag for biotin conjugation. For mRNA display screening, an additional E. coli BamA (421–810) construct (EcBamA′) was designed with an N-terminal His tag, a TEV protease cleavage site, and three point mutations (C690S/C700S/S752C) to allow for site specific biotinylation of residue 752.
For peptide binding assays a Cytiva Series S CAP sensor chip was loaded onto a Biacore T200, and the chip surface was prepared according to the manufacturer’s recommendations. The running buffer was 10 mM HEPES pH 7.5, 150 mM NaCl, 0.1% LDAO. Briefly, the CAP reagent (Cytiva) was diluted 1:10 in HBS-EP buffer (0.01 M HEPES pH 7.4, 0.15 M NaCl, 3 mM EDTA, 0.005% v/v Surfactant P20) and flowed across the chip surface for 300 sec. Biotinylated EcBamA, PaBamA, or AbBamA was then immobilized on the surface by flowing the protein over the chip for 200 sec. Cyclic peptides were injected at concentrations of 12.3, 37, 111, 333 and 1000 nM in single-cycle kinetic mode for 120 sec followed by a 120 sec dissociation period, and after the highest concentration of peptide was injected the dissociation period was 1200 sec. The chip surface was regenerated after each peptide was tested by flowing regeneration solution (8 M guanidine HCl, 1 M NaOH) over the chip surface.

[1] = tested on: E. coli WT (JCM158, MC4100 ara^r); type: cell-based, Escherichia coli
Procedure: (§1) The MICs of the cyclic peptides obtained in the mRNA display screens against E. coli strains JCM158 and JCM972 were measured using broth microdilution in cation-adjusted Mueller−Hinton broth (CAMHB), as recommended by the Clinical and Laboratory Standards Institute. In addition, zone of inhibition (ZOI) assays using JCM158, JCM972, AM710, AM711, MB5746, Acinetobacter baumannii ATCC17987, Pseudomonas aeruginosa MB5919, and Staphylococcus aureus Col were performed to provide a visual display of the relative susceptibility of the strains to the peptides. Briefly, ZOI studies were performed by first growing the bacteria in CAMHB to late exponential phase at 37 °C. Molten CAMHA (CAMHB containing 1.2% agar) was equilibrated to 48 °C in a water bath for 60 min. Cells were then mixed with 30 mL of the molten CAMHA at a 1:1000 dilution and immediately poured onto an Omni-tray plate (NUNC cat# 242811). The agar plate was kept at room temperature for 20 min to solidify and further dried in a biosafety cabinet for ~20 min. Each peptide was dissolved in DMSO, and 2–5 µL aliquots were dispensed onto the top of the plate in a two-fold dilution series in which the peptides were diluted in DMSO. After the liquid was absorbed, plates were incubated at 37 °C for 18 h, and images were acquired using a Hi-Res imaging system.

[2] = tested on: E. coli BamA101 (JCM972, MC4100 bamA101); type: cell-based, Escherichia coli; conditions: in solution, CAMHB broth microdilution
Procedure: as §1

[3] = tested on: AD202 transformed with pJH224; conditions: 2.5 mM EDTA or peptide at 2x MIC, 5 or 15 min
Procedure: Overnight cultures of AD202 transformed with pJH224 were grown at 37 °C in M9/ampicillin, washed, and added to 55 ml of fresh medium at OD550 = 0.02. When cultures reached OD550 = 0.2, 10 μM IPTG was added and cultures were incubated at 37 °C for an additional 15 min. Cultures were then divided into five 10 ml aliquots and placed into 15 ml tubes. Cells were pelleted in 15 ml tubes (3000 x g, 15 min, room temperature), resuspended in 1 ml pre-warmed M9 and transferred to 50 ml tubes. […] Cells were then placed into 1.7 ml tubes on ice for 5 min and centrifuged (2900 x g, 6 min, 4 °C). The cell pellet was discarded and the supernatant was centrifuged in a TLA.2 rotor in a Beckman Optima MAX-TL ultracentrifuge (100,000 x g, 30 min, 4 °C). Once again the pellet was discarded, and 5 mL 4x LDS sample buffer was then added to 20 mL of each supernatant (which represents the culture medium of ~0.05 OD equivalents), and molecules located in the culture medium were resolved by SDS-PAGE on 12% Novex Tris-Bis minigels (ThermoFisher) using MES running buffer. LPS was visualized using the Molecular Probes Pro-Q Emerald 300 Lipopolysaccharide Gel Stain Kit (ThermoFisher) following the manufacturer’s instructions.

[4] = tested on: EspP(G1123R) assembly in AD202 (bamA+); assay: Pulse-chase assembly of slow mutant EspP(G1123R) in AD202; type: cell-based, Escherichia coli; conditions: for effect on EspP(G1123R) assembly when added after the mutant binds to BAM: added 2 min after the start of the chase, peptides 2x MIC, EDTA 2.5 mM, sorbitol 0.8 M
Procedure: AD202 (MC4100 ompT::kan) transformed with pJH224 [Ptrc-espP(G1123R)] were grown to log phase in M9, the expression of espP(G1123R) was induced by adding 10 µM IPTG, and cells were subjected to pulse-chase labeling. […] Immunoprecipitations were performed using an anti-EspP C-terminal peptide antiserum and proteins were resolved by SDS-PAGE. Representative experiments are shown (left), and the completion of EspP(G1123R) assembly was quantitated by calculating the percent of radiolabeled proEspP(G1123R) that underwent autocatalytic cleavage in untreated cells (control) or cells treated with the indicated peptide 2 min after the start of the chase (red arrows) in three biologically independent experiments (right). […] The data are presented as mean values and error bars represent the SEM. In C 2.5 mM EDTA was added 2 min post-chase, and in E cells were harvested and resuspended in M9 (control) or M9 containing 0.8 M sorbitol 2 min post-chase. A representative experiment is shown (left), and the assembly of EspP(G1123R) in cells treated with EDTA or sorbitol or untreated (control) in three biologically independent experiments was quantitated as in B (right).
To analyze the assembly of OMPs in living cells, overnight cultures of HDB164 (MC4100 ara^R bamA101 ompT::spc) transformed with pJH110 (Ptrc-espPΔ5)[65] or AD202 transformed with pRSL5 (Ptrc-espP)[77] or pJH224 [Ptrc-espP (G1123R)][67] were grown in M9 supplemented with 100 μg/mL ampicillin (M9/ampicillin) at 37 °C. The overnight cultures were washed in M9 and added to 50 ml fresh M9/ampicillin at OD550 = 0.02. When the cultures reached OD550 = 0.2, IPTG (10 μM) was added and the cells were incubated for another 30 min at 37 °C before being subjected to pulse-chase labeling as previously described[66]. At each timepoint 1 ml aliquots were removed and proteins were precipitated by adding 10% (v/v) TCA. […] As a control, an equal amount of DMSO was added. In some experiments, 2.5 mM EDTA, pH 8 was added instead of a cyclic peptide. […]

[5] = tested on: EspP(G1123R) assembly in AD202 (bamA+); parameters: method as in PMID 36165532; conditions: cited from earlier work
[6] = tested on: wild-type EspP assembly in AD202; assay: Pulse-chase assembly of wild-type EspP in AD202; type: cell-based, Escherichia coli; conditions: 0.8 M sorbitol 2 min after start of chase, 28 °C
Procedure: To analyze the assembly of OMPs in living cells, overnight cultures of HDB164 (MC4100 ara^R bamA101 ompT::spc) transformed with pJH110 (Ptrc-espPΔ5)[65] or AD202 transformed with pRSL5 (Ptrc-espP)[77] or pJH224 [Ptrc-espP (G1123R)][67] were grown in M9 supplemented with 100 μg/mL ampicillin (M9/ampicillin) at 37 °C. The overnight cultures were washed in M9 and added to 50 ml fresh M9/ampicillin at OD550 = 0.02. When the cultures reached OD550 = 0.2, IPTG (10 μM) was added and the cells were incubated for another 30 min at 37 °C before being subjected to pulse-chase labeling as previously described[66]. At each timepoint 1 ml aliquots were removed and proteins were precipitated by adding 10% (v/v) TCA. […] As a control, an equal amount of DMSO was added. […] Radioactive proteins were visualized on a Fuji FLA 9000 imager using phoshophorimaging settings, and data was quantitated using Fuji MultiGauge v.
For experiments that involved EspP or EspP derivatives, the accumulated β-barrel was defined as the normalized β-barrel signal, where the normalization factor was (preproEspPsignal + proEspPsignal + β-domainsignal) at the 0 min timepoint for each condition and each experiment. For some experiments that involved EspP or EspP derivatives, the percent cleavage at each timepoint was also measured and was defined as [β-barrel signal /(proEspPsignal + β-barrelsignal)] x 100. […]

| SMILES | KD (E. coli BamA β-barrel) | MIC E. coli BamA101 [2] | kon (E. coli BamA β-barrel) | MIC E. coli WT ([1]; JCM158, 18 h) | effect on EspP(G1123R) assembly when added after the mutant binds to BAM [4] | other results |
| --- | --- | --- | --- | --- | --- | --- |
| CC(C)C[C@@H]1NC(=O)[C@H](Cc2ccccc2)NC(=O)CSC[C@@H](C(=O)NCC(N)=O)NC(=O)[C@H](CC(=O)O)NC(=O)[C@H](Cc2ccccc2)N(C)C(=O)CNC(=O)[C@H](CCCNC(=N)N)NC(=O)[C@H](C(C)C)NC(=O)[C@@H]2CCCN2C(=O)[C@H](CCCNC(=N)N)NC(=O)[C@H](Cc2c[nH]cn2)NC(=O)[C@H](Cc2ccc(O)cc2)NC(=O)[C@H](Cc2ccccc2)N(C)C(=O)[C@H](Cc2c[nH]c3ccccc23)NC1=O [CP1, F.L.W.MePhe.Y.H.R.P.V.R.G.MePhe.D.C.G] ({CH2CO}-FLW[NMeF]YHRPVRG[NMeF]DCG-NH2; thioether N-14) | low-nanomolar range | 12.5 µM (≈ 24.6 µg/mL) | – | – | – | MIC E. coli WT ([1]; in solution, CAMHB broth microdilution): > 50 µM |
| CC(C)[C@@H]1NC(=O)[C@H](CO)NC(=O)[C@H](CCCNC(=N)N)NC(=O)[C@H](CO)NC(=O)[C@@H]2CCCN2C(=O)[C@H](Cc2c[nH]c3ccccc23)NC(=O)[C@@H]2Cc3ccccc3CN2C(=O)[C@H](Cc2c[nH]c3ccccc23)NC(=O)[C@H](CCCNC(=N)N)NC(=O)CNC(=O)[C@H](CO)NC(=O)[C@H](Cc2ccccc2)NC(=O)CSC[C@@H](C(=O)NCC(N)=O)NC(=O)CNC1=O [CP2, F.S.G.R.W.Tic.W.P.S.R.S.V.G.C.G] ({CH2CO}-FSGRW[Tic]WPSRSVGCG-NH2; thioether N-14) | low-nanomolar range | 6.3 µM (≈ 11.2 µg/mL) | 430000 ± 2.9e+10 M⁻¹ s⁻¹ | > 50 µM | – | – |
| CC(C)C[C@@H]1NC(=O)CN(CCc2ccccc2)C(=O)[C@H](Cc2ccc(O)cc2)NC(=O)[C@H](CCCNC(=N)N)NC(=O)[C@H](CCCNC(=N)N)NC(=O)[C@H](Cc2ccccc2)NC(=O)CSC[C@@H](C(=O)NCC(N)=O)NC(=O)[C@H](Cc2ccc(O)cc2)NC(=O)[C@@H]2Cc3ccccc3CN2C(=O)[C@H](C(C)C)NC(=O)[C@H](Cc2c[nH]c3ccccc23)NC(=O)[C@H](Cc2ccc(O)cc2)NC(=O)[C@H](CC(N)=O)NC(=O)[C@H](CC(=O)O)NC1=O [CP3, F.R.R.Y.PeGly.L.D.N.Y.W.V.Tic.Y.C.G] ({CH2CO}-FRRY[Gly(NCH2CH2Ph)]LDNYWV[Tic]YCG-NH2; thioether N-14) | low-nanomolar range | 6.3 µM (≈ 13.3 µg/mL) | 160000 ± 3e+09 M⁻¹ s⁻¹ | > 50 µM | – | – |
| O=C(O)CN(CCN(CC(=O)O)CC(=O)O)CC(=O)O [EDTA] | – | – | – | – | accelerate | release of LPS into the culture medium [3]: releasing LPS into the culture medium; effect on EspP(G1123R) assembly, EDTA added prior to synthesis ([4]; 2.5 mM EDTA added 1 min or 5 min before the start of the chase): accelerates |
| NC(N)=NC(=O)CC(Nc1nc(N=C(N)N)nc(NC2CCC(NC(=O)Cn3nnc(-c4ccc(F)cc4)n3)CC2)n1)C1CC1 (centres unmarked) [MRL-494] | – | – | – | – | – | effect on EspP(G1123R) assembly when added after the protein binds to BAM [5]: inhibit the assembly |
| OC[C@@H](O)[C@@H](O)[C@H](O)[C@@H](O)CO [sorbitol] | – | – | – | – | accelerate | effect on assembly of wild-type EspP, sorbitol [6]: slightly delay |
